Experimental findings from ChEMBL document CHEMBL1138608, “The discovery of potent, selective, and orally bioavailable PDE9 inhibitors as potential hypoglycemic agents” (Bioorg Med Chem Lett, 2009) are described below.

In data set [1] the test system is Mus musculus. The data set can be described thus: Reduction of insulin level in ob/ob mouse at 100 mg/kg, po administered by subchronic dosing for 4 days (RVb 23 ng/mL). In kind it is functional. Further details: scale not given: the % may be the effect or the level left.
Data set [2] deals with Mus musculus. The data set is described as follows: Reduction of body weight in ob/ob mouse at 100 mg/kg, po administered by subchronic dosing for 4 days (RVb 44 g). The arrangement: scale not given: the % may be the effect or the level left. In kind it is functional.
Data set [3] concerns the target High affinity cGMP-specific 3',5'-cyclic phosphodiesterase 9A (Homo sapiens, UniProt O76083). The data set is described as follows: Inhibition of human recombinant PDE9 expressed in SF9 cells by scintillation proximity assay. (In general: Scintillation proximity formats need no separation of bound from free tracer.)
The target of data set [4] is Dual specificity calcium/calmodulin-dependent 3',5'-cyclic nucleotide phosphodiesterase 1B (Homo sapiens, UniProt Q01064). The data set can be described thus: Inhibition of PDE1b.
The target of data set [5] is cGMP-specific 3',5'-cyclic phosphodiesterase (Homo sapiens, UniProt O76074). The data set is described as follows: Inhibition of PDE5.
For data set [6], the system named is Mus musculus. The data set can be described thus: Free plasma concentration at terminal bleed in ob/ob mouse at 100 mg/kg, po administered by subchronic dosing for 4 days after 3 hrs of last dose.
The target of data set [7] is 3',5'-cyclic-AMP phosphodiesterase 4A (Homo sapiens, UniProt P27815). The data set is described as follows: Inhibition of PDE4a.
3',5'-cyclic-AMP phosphodiesterase 4A, sequence (P27815 whole entry): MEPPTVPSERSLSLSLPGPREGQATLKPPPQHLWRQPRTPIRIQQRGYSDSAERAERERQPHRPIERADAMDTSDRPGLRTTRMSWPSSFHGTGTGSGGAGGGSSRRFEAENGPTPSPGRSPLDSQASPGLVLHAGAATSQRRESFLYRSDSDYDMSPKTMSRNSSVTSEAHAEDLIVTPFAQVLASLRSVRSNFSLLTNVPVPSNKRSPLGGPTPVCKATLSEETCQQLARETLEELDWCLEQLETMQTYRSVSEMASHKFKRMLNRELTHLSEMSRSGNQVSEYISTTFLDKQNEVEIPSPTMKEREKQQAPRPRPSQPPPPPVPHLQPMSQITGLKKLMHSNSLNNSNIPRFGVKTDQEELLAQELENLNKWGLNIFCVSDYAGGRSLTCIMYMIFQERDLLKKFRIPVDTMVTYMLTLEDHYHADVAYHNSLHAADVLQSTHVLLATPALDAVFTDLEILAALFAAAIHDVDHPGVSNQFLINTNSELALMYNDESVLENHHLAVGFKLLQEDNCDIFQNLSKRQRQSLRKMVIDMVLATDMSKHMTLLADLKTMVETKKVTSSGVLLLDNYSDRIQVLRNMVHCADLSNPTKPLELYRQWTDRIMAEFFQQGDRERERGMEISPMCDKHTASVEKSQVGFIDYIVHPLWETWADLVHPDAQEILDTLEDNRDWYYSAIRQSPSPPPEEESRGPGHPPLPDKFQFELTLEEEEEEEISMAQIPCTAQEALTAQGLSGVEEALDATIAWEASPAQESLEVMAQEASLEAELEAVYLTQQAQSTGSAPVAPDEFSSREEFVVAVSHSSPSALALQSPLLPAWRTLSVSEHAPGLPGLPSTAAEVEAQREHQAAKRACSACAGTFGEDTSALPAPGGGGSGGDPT
The target in data set [8] is 3',5'-cyclic-AMP phosphodiesterase 4B (Homo sapiens, UniProt Q07343). The data set can be described thus: Inhibition of PDE4b.
In data set [9] the target is Dual specificity calcium/calmodulin-dependent 3',5'-cyclic nucleotide phosphodiesterase 1A (Homo sapiens, UniProt P54750). The data set can be described thus: Inhibition of PDE1a.
Dual specificity calcium/calmodulin-dependent 3',5'-cyclic nucleotide phosphodiesterase 1A, sequence (P54750 whole entry): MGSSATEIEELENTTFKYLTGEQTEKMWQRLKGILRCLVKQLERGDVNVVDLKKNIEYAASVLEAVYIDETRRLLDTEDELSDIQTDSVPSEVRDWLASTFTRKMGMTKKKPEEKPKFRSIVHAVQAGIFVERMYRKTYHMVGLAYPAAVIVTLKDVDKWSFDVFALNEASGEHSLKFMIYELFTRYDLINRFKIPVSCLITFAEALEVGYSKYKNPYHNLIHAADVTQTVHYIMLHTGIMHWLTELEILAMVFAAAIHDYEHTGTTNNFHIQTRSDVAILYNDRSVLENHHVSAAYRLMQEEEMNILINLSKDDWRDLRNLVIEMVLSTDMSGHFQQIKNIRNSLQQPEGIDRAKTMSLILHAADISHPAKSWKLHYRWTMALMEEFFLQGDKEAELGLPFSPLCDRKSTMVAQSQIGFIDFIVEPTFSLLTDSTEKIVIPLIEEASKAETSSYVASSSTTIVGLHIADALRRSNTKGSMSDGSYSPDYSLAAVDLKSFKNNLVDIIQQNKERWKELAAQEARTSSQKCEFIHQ
Data set [10] deals with Mus musculus. The data set can be described thus: Reduction of body weight in ob/ob mouse at 500 mg/kg, po administered by subchronic dosing for 4 days (RVb 44 g). In kind it is functional. Further details: scale not given: the % may be the effect or the level left.
Data set [11] relates to Mus musculus. The data set is described as follows: Reduction of glucose level in ob/ob mouse at 250 mg/kg, po administered by subchronic dosing for 4 days (RVb 406 mg/dl). Type of data set: functional. The arrangement: scale not given: the % may be the effect or the level left.
Data set [12] has as its system Mus musculus. The data set is described as follows: Reduction of glucose level in ob/ob mouse at 100 mg/kg, po administered by subchronic dosing for 4 days relative to control (RVb 406 mg/dl). Type of data set: functional. The arrangement: scale not given: the % may be the effect or the level left.
The subject of data set [13] is Mus musculus. The data set can be described thus: Reduction of insulin level in ob/ob mouse at 250 mg/kg, po administered by subchronic dosing for 4 days (RVb 23 ng/mL). In kind it is functional. Further details: scale not given: the % may be the effect or the level left.
Data set [14] concerns the target cGMP-inhibited 3',5'-cyclic phosphodiesterase 3B (Homo sapiens, UniProt Q13370). The data set can be described thus: Inhibition of PDE3b.
Data set [15] has as its target High affinity cAMP-specific and IBMX-insensitive 3',5'-cyclic phosphodiesterase 8A (Homo sapiens, UniProt O60658). The data set can be described thus: Inhibition of PDE8a.
For data set [16], the target named is Dual specificity calcium/calmodulin-dependent 3',5'-cyclic nucleotide phosphodiesterase 1C (Homo sapiens, UniProt Q14123). The data set can be described thus: Inhibition of PDE1c.
Dual specificity calcium/calmodulin-dependent 3',5'-cyclic nucleotide phosphodiesterase 1C, sequence (Q14123 whole entry): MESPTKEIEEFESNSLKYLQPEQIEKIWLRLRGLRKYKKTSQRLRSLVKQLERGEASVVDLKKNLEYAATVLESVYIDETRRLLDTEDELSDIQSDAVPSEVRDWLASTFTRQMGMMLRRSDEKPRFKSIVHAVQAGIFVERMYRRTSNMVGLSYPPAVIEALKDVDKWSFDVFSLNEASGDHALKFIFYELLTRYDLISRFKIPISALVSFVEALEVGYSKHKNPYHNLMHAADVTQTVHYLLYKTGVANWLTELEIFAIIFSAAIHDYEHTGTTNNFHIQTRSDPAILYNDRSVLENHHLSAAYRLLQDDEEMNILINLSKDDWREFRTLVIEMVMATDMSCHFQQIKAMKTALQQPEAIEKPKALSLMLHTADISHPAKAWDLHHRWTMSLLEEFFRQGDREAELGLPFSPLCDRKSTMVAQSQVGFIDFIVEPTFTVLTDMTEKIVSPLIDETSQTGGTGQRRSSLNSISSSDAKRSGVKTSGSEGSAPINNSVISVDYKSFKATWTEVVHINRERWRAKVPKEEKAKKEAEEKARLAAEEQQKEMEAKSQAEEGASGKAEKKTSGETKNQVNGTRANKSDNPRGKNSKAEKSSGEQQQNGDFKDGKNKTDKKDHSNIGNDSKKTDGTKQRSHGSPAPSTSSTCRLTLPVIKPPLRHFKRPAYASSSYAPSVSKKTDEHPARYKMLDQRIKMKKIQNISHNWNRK
Data set [17] has as its target High affinity 3',5'-cyclic-AMP phosphodiesterase 7A (Homo sapiens, UniProt Q13946). The data set can be described thus: Inhibition of PDE7a.
Data set [18] addresses High affinity cAMP-specific and IBMX-insensitive 3',5'-cyclic phosphodiesterase 8B (Homo sapiens, UniProt O95263). The data set is described as follows: Inhibition of PDE8b.
In data set [19] the test system is Mus musculus. The data set is described as follows: Free plasma concentration at terminal bleed in ob/ob mouse at 500 mg/kg, po administered by subchronic dosing for 4 days after 3 hrs of last dose.
The target of data set [20] is cGMP-inhibited 3',5'-cyclic phosphodiesterase 3A (Homo sapiens, UniProt Q14432). The data set is described as follows: Inhibition of PDE3a.
The target of data set [21] is 3',5'-cyclic-AMP phosphodiesterase 7B (Homo sapiens, UniProt Q9NP56). The data set can be described thus: Inhibition of PDE7b.
3',5'-cyclic-AMP phosphodiesterase 7B, sequence (Q9NP56 whole entry): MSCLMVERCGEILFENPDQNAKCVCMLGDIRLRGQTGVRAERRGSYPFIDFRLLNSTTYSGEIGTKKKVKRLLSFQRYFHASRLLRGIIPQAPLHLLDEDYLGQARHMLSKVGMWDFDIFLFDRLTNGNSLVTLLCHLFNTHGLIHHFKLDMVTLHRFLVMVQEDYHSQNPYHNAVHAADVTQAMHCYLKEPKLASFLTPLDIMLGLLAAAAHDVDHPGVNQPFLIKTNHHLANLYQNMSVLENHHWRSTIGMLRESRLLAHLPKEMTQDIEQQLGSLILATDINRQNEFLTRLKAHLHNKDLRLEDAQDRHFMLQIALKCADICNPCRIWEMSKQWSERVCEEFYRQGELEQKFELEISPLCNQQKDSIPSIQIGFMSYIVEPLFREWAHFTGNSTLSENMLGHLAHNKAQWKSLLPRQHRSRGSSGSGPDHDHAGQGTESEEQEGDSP
Data set [22] relates to Mus musculus. The data set can be described thus: Reduction of insulin level in ob/ob mouse at 500 mg/kg, po administered by subchronic dosing for 4 days (RVb 23 ng/mL). In kind it is functional. Further details: scale not given: the % may be the effect or the level left.
A short description of data set [23]: Inhibition of PDE10.
The subject of data set [24] is Mus musculus. The data set can be described thus: Reduction of body weight in ob/ob mouse at 250 mg/kg, po administered by subchronic dosing for 4 days (RVb 44 g). Further details: scale not given: the % may be the effect or the level left. In kind it is functional.
Data set [25] deals with Mus musculus. The data set is described as follows: Reduction of glucose level in ob/ob mouse at 500 mg/kg, po administered by subchronic dosing for 4 days (RVb 406 mg/dl). Type of data set: functional. Further details: scale not given: the % may be the effect or the level left.
The target in data set [26] is 3',5'-cyclic-AMP phosphodiesterase 4C (Homo sapiens, UniProt Q08493). The data set can be described thus: Inhibition of PDE4c.
Data set [27] is described as follows: Inhibition of PDE6.
Data set [28] can be described thus: Inhibition of PDE2.
Data set [29] in a line: Inhibition of PDE11.
Data set [30] concerns the target 3',5'-cyclic-AMP phosphodiesterase 4D (Homo sapiens, UniProt Q08499). The data set is described as follows: Inhibition of PDE4d.
For data set [31], the system named is Mus musculus. The data set can be described thus: Free plasma concentration at terminal bleed in ob/ob mouse at 250 mg/kg, po administered by subchronic dosing for 4 days after 3 hrs of last dose.
A short description of data set [32]: Oral bioavailability in rat. The conditions noted are these: in vivo.
A short description of data set [33]: Volume of distribution at steady state in rat. As to conditions: in vivo.
A short description of data set [34]: in vivo. The conditions noted are these: rat.
Data set [35] can be described thus: Apparent permeability across MDCK cells. The conditions noted are these: dog.

Each structure is given as a SMILES string.

What is called IC50 is the midpoint of a concentration-inhibition curve. In general, bioavailability refers to dose-corrected exposure relative to a reference, in per cent. One may read the Vd as a proportionality between amount in the body and measured concentration, not a real space. In general, clearance refers to the rate of elimination divided by the concentration. In general, Papp refers to a coefficient for how fast a substance crosses the barrier.

High affinity 3',5'-cyclic-AMP phosphodiesterase 7A, sequence (Q13946 whole entry): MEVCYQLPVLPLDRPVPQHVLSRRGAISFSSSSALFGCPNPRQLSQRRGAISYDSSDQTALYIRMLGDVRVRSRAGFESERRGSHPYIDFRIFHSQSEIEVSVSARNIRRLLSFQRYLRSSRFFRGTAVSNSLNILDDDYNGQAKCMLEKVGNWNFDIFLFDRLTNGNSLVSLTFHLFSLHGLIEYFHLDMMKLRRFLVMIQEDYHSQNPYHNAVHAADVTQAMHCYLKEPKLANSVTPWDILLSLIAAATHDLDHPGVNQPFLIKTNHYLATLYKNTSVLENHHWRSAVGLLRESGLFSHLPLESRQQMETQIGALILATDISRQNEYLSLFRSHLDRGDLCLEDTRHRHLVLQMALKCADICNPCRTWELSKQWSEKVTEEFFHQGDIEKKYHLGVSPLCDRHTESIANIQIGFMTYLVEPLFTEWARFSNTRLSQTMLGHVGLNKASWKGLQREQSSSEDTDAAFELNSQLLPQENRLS
High affinity cAMP-specific and IBMX-insensitive 3',5'-cyclic phosphodiesterase 8A, sequence (O60658 whole entry): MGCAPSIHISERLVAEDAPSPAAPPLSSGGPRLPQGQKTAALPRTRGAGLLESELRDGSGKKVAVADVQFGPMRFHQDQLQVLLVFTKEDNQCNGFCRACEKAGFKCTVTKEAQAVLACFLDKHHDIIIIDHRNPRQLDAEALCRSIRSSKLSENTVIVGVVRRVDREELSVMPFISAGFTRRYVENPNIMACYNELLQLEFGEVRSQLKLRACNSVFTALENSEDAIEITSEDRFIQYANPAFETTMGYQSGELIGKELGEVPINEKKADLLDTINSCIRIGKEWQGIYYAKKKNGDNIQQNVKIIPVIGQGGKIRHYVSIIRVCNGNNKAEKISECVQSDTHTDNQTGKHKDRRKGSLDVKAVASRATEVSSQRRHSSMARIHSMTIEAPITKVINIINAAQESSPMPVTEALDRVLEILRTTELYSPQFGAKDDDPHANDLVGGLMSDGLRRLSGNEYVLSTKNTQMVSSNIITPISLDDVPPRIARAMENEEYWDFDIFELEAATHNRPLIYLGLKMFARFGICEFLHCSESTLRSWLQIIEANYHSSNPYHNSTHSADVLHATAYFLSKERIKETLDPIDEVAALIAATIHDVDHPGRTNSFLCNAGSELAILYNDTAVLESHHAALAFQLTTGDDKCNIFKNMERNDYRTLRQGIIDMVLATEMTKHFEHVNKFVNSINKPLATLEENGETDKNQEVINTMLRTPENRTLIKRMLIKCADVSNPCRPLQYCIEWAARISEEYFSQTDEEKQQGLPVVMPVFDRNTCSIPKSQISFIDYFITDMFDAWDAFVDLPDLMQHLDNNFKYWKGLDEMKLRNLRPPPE
High affinity cAMP-specific and IBMX-insensitive 3',5'-cyclic phosphodiesterase 8B, sequence (O95263 whole entry): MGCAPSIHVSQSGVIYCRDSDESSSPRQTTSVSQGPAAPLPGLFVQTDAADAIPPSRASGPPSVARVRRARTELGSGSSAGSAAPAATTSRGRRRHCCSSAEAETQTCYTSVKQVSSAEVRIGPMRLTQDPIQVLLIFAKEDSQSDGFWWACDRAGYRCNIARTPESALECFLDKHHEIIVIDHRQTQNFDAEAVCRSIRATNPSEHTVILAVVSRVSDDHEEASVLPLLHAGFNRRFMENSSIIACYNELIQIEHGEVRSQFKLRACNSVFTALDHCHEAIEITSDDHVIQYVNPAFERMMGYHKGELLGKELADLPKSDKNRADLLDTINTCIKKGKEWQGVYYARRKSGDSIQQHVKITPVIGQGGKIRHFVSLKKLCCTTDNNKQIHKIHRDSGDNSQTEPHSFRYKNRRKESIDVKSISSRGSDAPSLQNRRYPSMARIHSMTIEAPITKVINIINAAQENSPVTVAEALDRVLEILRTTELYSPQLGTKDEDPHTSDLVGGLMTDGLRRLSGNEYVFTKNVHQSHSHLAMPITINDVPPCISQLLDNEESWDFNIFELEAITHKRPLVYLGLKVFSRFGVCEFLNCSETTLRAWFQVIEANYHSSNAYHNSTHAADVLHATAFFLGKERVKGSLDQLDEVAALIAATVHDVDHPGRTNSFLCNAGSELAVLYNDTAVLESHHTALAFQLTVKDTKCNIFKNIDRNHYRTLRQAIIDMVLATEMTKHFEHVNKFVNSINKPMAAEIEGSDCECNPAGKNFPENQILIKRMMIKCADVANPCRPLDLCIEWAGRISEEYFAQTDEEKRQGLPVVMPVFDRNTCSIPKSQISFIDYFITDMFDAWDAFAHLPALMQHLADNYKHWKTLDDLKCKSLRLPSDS

Turning to `CC(C)c1n[nH]c2c(=O)[nH]c(Cc3ccccc3OCCN3CCOCC3)nc12`, the Activity in data set [1] is -35%; in data set [2] it was -4.3%; in data set [10] it was -11%; in data set [11], -40%; in [12], -32%; in data set [13], -35%. Moreover, the Activity in [22] is -59%; in [24], -6.4%; in [25], -55%. For the same compound, the IC50 is 41 nM in data set [3]; 4950 nM in data set [4]; 5200 nM in data set [5]; > 10000 nM in data set [7]; > 10000 nM in data set [8]; 3900 nM in data set [9]. For the same compound, the IC50 was > 10000 nM in data set [14]; > 10000 nM in [15]; 1130 nM in data set [16]; > 10000 nM in data set [17]; > 10000 nM in [18]; > 10000 nM in [20]. Besides, the IC50 in [21] is > 10000 nM; in data set [23], > 10000 nM; in [26], > 10000 nM; in data set [27], > 10000 nM; in data set [28] it was 8200 nM; in [29] it was > 10000 nM. In data set [30], the IC50 was > 10000 nM. The “Cp(f)” value in data set [6] (mouse, in vivo, po, 100 mg/kg, 3 h) stood at 140 nM; in data set [19] (mouse, in vivo, po, 500 mg/kg, 3 h) it was 361 nM; in [31] (mouse, in vivo, po, 250 mg/kg, 3 h), 243 nM.

Consider `CC(C)c1nn(C)c2c(=O)[nH]c(Cc3ccccc3OCCN3CCOCC3)nc12`, for which the IC50 in data set [3] came to 530 nM; in data set [4] it was 7810 nM; in data set [9] it was 790 nM; in [16], 970 nM.

For `CC(C)c1n[nH]c2c(=O)[nH]c(C[C@@H]3CCCC[C@H]3Nc3ncccn3)nc12`, the IC50 in data set [3] was 35 nM; in data set [4] it was 9800 nM; in data set [5], 1500 nM; in data set [7], > 10000 nM; in data set [8], > 10000 nM; in data set [9], 7700 nM. Besides, the IC50 is > 10000 nM in data set [14]; > 10000 nM in data set [15]; 4400 nM in data set [16]; > 10000 nM in data set [17]; > 10000 nM in data set [18]; > 10000 nM in data set [20]. Moreover, the IC50 in [21] is > 10000 nM; in data set [23] it was > 10000 nM; in [26] it was > 10000 nM; in [27] it was > 10000 nM; in [28], > 10000 nM; in data set [29] it was 8400 nM. Also, in [30], the IC50 was > 10000 nM.

`CC(C)c1n[nH]c2c(=O)[nH]c(C[C@@H]3CCCC[C@H]3Nc3ncc(C(=O)O)c(C(F)(F)F)n3)nc12` registered a bioavailability in data set [32] of 100%. Moreover, the IC50 is 7 nM in [3]; > 10000 nM in data set [4]; 370 nM in data set [5]; > 1000 nM in data set [6] (Mus musculus, Plasma); > 1000 nM in data set [7]; > 1000 nM in data set [8]. The concentration for half-maximal inhibition (IC50) was > 10000 nM in data set [9]; > 1000 nM in [14]; > 1000 nM in data set [15]; > 10000 nM in data set [16]; > 1000 nM in [17]; > 1000 nM in data set [18]. The IC50 in [19] (Mus musculus, Plasma) was > 1000 nM; in [20], > 1000 nM; in data set [21] it was > 1000 nM; in data set [23], > 1000 nM; in [26], > 1000 nM; in data set [27], > 1000 nM. For the same compound, the IC50 was > 1000 nM in data set [28]; > 1000 nM in data set [29]; > 1000 nM in data set [30]; > 1000 nM in data set [31] (Mus musculus, Plasma). Further, in [33], the Vd was 0.12 L/kg. Moreover, the clearance in data set [34] came to 19.8 mL/min/kg.

With `CC(C)c1n[nH]c2c(=O)[nH]c(Cc3ccccc3OCc3ccccc3)nc12`, the IC50 in data set [3] was 82 nM; in [4], 2630 nM; in [9] it was 1430 nM; in data set [16] it was 1340 nM.

Regarding `CC(C)c1n[nH]c2c(=O)[nH]c(Cc3ccccc3OC(F)(F)F)nc12`, the IC50 in data set [3] was determined as 56 nM; in data set [4], 2650 nM; in [9], 2500 nM; in data set [16] it was 520 nM. The Papp in data set [35] was found to be 10.8 ×10⁻⁶ cm/s.

With `Cc1ccc(N[C@@H]2CCCC[C@H]2Cc2nc3c(C(C)C)[nH]nc3c(=O)[nH]2)nn1`, the IC50 was 23 nM in [3], > 10000 nM in data set [4], > 10000 nM in data set [9] and 7600 nM in [16].

Consider `CC(C)c1n[nH]c2c(=O)[nH]c(C[C@@H]3CCCC[C@H]3OCCN3CCOCC3)nc12`, for which the half-inhibitory concentration (IC50) in data set [3] is 87 nM; in data set [4], > 10000 nM; in data set [9] it was > 10000 nM; in [16], 2050 nM.

`CC(C)c1n[nH]c2c(=O)[nH]c(C[C@@H]3CCCC[C@H]3NC(=O)CN3CCCC3)nc12`: the IC50 in data set [3] is 36 nM; in data set [4] it was > 10000 nM; in data set [9], > 10000 nM; in [16] it was > 10000 nM.

With `CC(C)c1[nH]nc2c(=O)[nH]c(C[C@@H]3CCCC[C@H]3NC(=O)CC3CCOCC3)nc12`, the IC50 is 19 nM in data set [3], > 10000 nM in [4], > 10000 nM in data set [9] and 3100 nM in data set [16].

Take `CC(C)c1n[nH]c2c(=O)[nH]c(Cc3cccc(Cl)c3)nc12`: the IC50 in data set [4] was 38 nM; in data set [9], 54 nM; in data set [16] it was 4 nM.

On to `CC(C)c1[nH]nc2c(=O)[nH]c(C[C@@H]3CCCC[C@H]3NC(=O)NCCCN3CCOCC3)nc12`, for which the IC50 was 46 nM in data set [3], > 10000 nM in [4], > 10000 nM in data set [9] and 4200 nM in [16]. In data set [35], the Papp was 0.7 ×10⁻⁶ cm/s.
